Data from the supplement of paper PMC3937590.

Key:
Test in all cases: -log10 GI50 (growth inhibition 50%) (-log10(M)); higher = more potent growth inhibition
184B5 = system: 184B5
Procedure, shortened: (§1)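 Breast cancer cell lines were exposed to each compound for 72 hours at nine doses in 1:5 serial dilution, in triplicate, with a luminescence read-out against a time-zero plate. A Gompertz curve was fitted to the dose-response data by nonlinear least squares. The value is minus log10 of GI50, the molar concentration giving the set level of growth inhibition. Values equal to the top dose carry a < qualifier.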

HCC1954 = system: HCC1954
Procedure, shortened: as §1

HCC38 = system: HCC38
Procedure, shortened: as §1

MCF7 = system: MCF7
Procedure, shortened: as §1

MDAMB415 = system: MDAMB415
Procedure, shortened: as §1

BT474 = system: BT474
Procedure, shortened: as §1

MDAMB134VI = system: MDAMB134VI
Procedure, shortened: as §1

HCC3153 = system: HCC3153
Procedure, shortened: as §1

HCC1806 = system: HCC1806
Procedure, shortened: as §1

MCF12A = system: MCF12A
Procedure, shortened: as §1

MDAMB157 = system: MDAMB157
Procedure, shortened: as §1

HCC70 = system: HCC70
Procedure, shortened: as §1

HS578T = system: HS578T
Procedure, shortened: as §1

BT20 = system: BT20
Procedure, shortened: as §1

BT549 = system: BT549
Procedure, shortened: as §1

MDAMB231 = system: MDAMB231
Procedure, shortened: as §1

SUM225CWN = system: SUM225CWN
Procedure, shortened: as §1

184A1 = system: 184A1
Procedure, shortened: as §1

MCF10A = system: MCF10A
Procedure, shortened: as §1

HCC1187 = system: HCC1187
Procedure, shortened: as §1

Compound | -log10 GI50 (HCC1954) | -log10 GI50 (HCC38) | -log10 GI50 (MCF7) | -log10 GI50 (MDAMB415) | -log10 GI50 (BT474) | -log10 GI50 (MDAMB134VI) | -log10 GI50 (HCC3153) | -log10 GI50 (HCC1806) | -log10 GI50 (MDAMB157) | -log10 GI50 (BT20) | -log10 GI50 (BT549) | -log10 GI50 (MDAMB231) | -log10 GI50 (HCC1187) | -log10 GI50 (184B5) | -log10 GI50 (MCF12A) | -log10 GI50 (HCC70) | -log10 GI50 (HS578T) | -log10 GI50 (SUM225CWN) | -log10 GI50 (184A1) | -log10 GI50 (MCF10A)
Cn1cnc2c(F)c(Nc3ccc(Br)cc3Cl)c(C(=O)NOCCO)cc21 [AZD6244] | 5.84 | < 4.3 | < 4.3 | 4.96 | < 4.3 | 6.2 | < 4.3 | < 4.3 | < 4.3 | < 4.3 | < 4.3 | < 4.3 | < 4.3 | 6.9 | 6.69 | 5.75 | 4.75 | < 4.3 | 6.5 | 6.71
O=c1[nH]c2ccccc2n1C1CCN(Cc2ccc(-c3[nH]c4cc5ncnc5cc4nc3-c3ccccc3)cc2)CC1 [Akt inhibitor VIII] | 5.08 | 4.9 | 5.77 | 5.7 | 6.08 | 5.05 | 5.01 | 5.05 | 4.86 | 5.09 | 5.08 | 4.82 | 5.43 | 5.56 | 5.01 | 5.74 | 4.89 | 6.16 | 5.58 | 5.34
O=c1cc(-c2ccccc2)oc2cc(O)c(O)c(O)c12 [Baicalein] | < 3.78 | 4.52 | 4.3 | < 3.78 | 4.3 | 4.07 | 4.69 | 4.73 | 4.28 | 4.05 | 4.64 | 4.75 | 4.94 | < 3.78 | 4.78 | 4.31 | 4.32 | 4.43 | < 3.78 | 4.71
CC(C)C[C@H](NC(=O)[C@H](Cc1ccccc1)NC(=O)c1cnccn1)B(O)O [Bortezomib] | 8.13 | 7.98 | 7.75 | 7.4 | 8.24 | 8.08 | 7.9 | 7.59 | 8.16 | 7.33 | 8.21 | 7.66 | 8.26 | 8.33 | 7.39 | 8.6 | 7.81 | 8 | 8.18 | 6.64
COc1cc(Nc2c(C#N)cnc3cc(OCCCN4CCN(C)CC4)c(OC)cc23)c(Cl)cc1Cl [Bosutinib] | 5.92 | 6.05 | 5.59 | 5.73 | 5.71 | < 4 | 5.18 | 5.69 | 5.88 | 5.89 | 5.95 | 5.55 | 5.5 | 6.26 | 5.99 | 6.03 | 5.8 | 5.81 | 6.3 | 5.85
C#Cc1cccc(Nc2ncnc3cc(OCCOC)c(OCCOC)cc23)c1 [Erlotinib] | 5.55 | < 4.18 | < 4.18 | < 4.18 | 4.98 | < 4.18 | 4.51 | 5.37 | < 4.18 | 5.7 | 4.39 | 4.33 | 5.12 | 6.32 | 6.27 | 5.76 | < 4.18 | 4.89 | 6.64 | 5.97
CSCC[C@H](NC(=O)[C@H](Cc1ccccc1)NC[C@@H](NC[C@@H](N)CS)C(C)C)C(=O)O [FTase inhibitor I] | < 4.48 | < 4.48 | < 4.48 | < 4.18 | < 4.18 | < 4.48 | < 4.48 | < 4.48 | < 4.18 | < 4.48 | < 4.18 | < 4.18 | < 4.48 | < 4.18 | < 4.18 | < 4.18 | < 4.48 | 4.49 | < 4.18 | < 4.48
O=C1c2ccccc2-[n+]2ccc3c([nH]c4ccccc43)c21 [Fascaplysin] | 6.57 | 6.56 | 6.72 | 7.22 | 6.73 | 6.65 | 6.55 | 6.59 | 6.77 | 6.51 | 6.28 | 6.6 | 7.83 | 6.53 | 6.45 | 6.9 | 5.98 | 7.25 | 6.4 | 6.43
CCCCCN(C)CCC(O)(P(=O)(O)O)P(=O)(O)O [Ibandronate sodium] | 4.26 | 4.3 | 4.31 | 4.29 | 3.98 | 4.17 | 4.05 | 4.44 | 4.36 | 4.69 | 4.53 | 4.21 | 3.77 | 3.62 | 3.73 | 4.2 | 5.03 | 3.3 | 3.81 | 3.39
C[C@]12O[C@H](C[C@]1(O)CO)n1c3ccccc3c3c4c(c5c6ccccc6n2c5c31)CNC4=O [Lestaurtinib] | 5.31 | 7.06 | 5.84 | 6.46 | 6.61 | 6.33 | 5.06 | 6.79 | 6.46 | 5.53 | 6.19 | 6.14 | 6.13 | 6.49 | 6.33 | 6.71 | 5.99 | 6.03 | 5.87 | 6.26

More lines, main results first:

-log10 GI50 (HCC1954) | -log10 GI50 (HCC38) | -log10 GI50 (MCF7) | -log10 GI50 (MDAMB415) | -log10 GI50 (BT474) | -log10 GI50 (MDAMB134VI) | -log10 GI50 (HCC3153) | -log10 GI50 (HCC1806) | -log10 GI50 (MDAMB157) | -log10 GI50 (BT20) | -log10 GI50 (BT549) | -log10 GI50 (MDAMB231) | -log10 GI50 (HCC1187) | Compound | -log10 GI50 (184B5) | -log10 GI50 (MCF12A) | -log10 GI50 (HCC70) | -log10 GI50 (HS578T) | -log10 GI50 (SUM225CWN) | -log10 GI50 (184A1) | -log10 GI50 (MCF10A)
6.01 | 6.54 | 5.13 | 4.56 | 4.63 | 5.61 | 5.57 | 5.51 | 6.02 | 5.48 | 5.89 | 5.69 | 6.21 | COc1cc([C@@H]2c3cc4c(cc3[C@@H](O[C@@H]3O[C@@H]5CO[C@@H](C)O[C@H]5[C@H](O)[C@H]3O)[C@H]3COC(=O)[C@H]23)OCO4)cc(OC)c1O [Etoposide] | 5.06 | 6.44 | 4.89 | 5.22 | 4.99 | 5.08 | 5.43
3.99 | 3.79 | 3.77 | 4.5 | 3.37 | 3.2 | 3.11 | 4.02 | 3.87 | 3.49 | 3.57 | 3.32 | 3.81 | O=c1[nH]c(=O)n([C@H]2C[C@H](O)[C@@H](CO)O2)cc1F [Floxuridine] | 3.65 | 4.86 | 3.67 | 3.52 | 3.53 | 3.67 | 4.86
< 4.48 | 5.96 | 4.67 | 5.03 | < 4.18 | 5.9 | < 4.48 | < 4.18 | < 4.18 | 5.18 | 5.01 | 4.58 | 6.22 | Cc1cncc2cccc(S(=O)(=O)N3CCCN(C(=O)CN)C[C@@H]3C)c12 [Glycyl H1152] | < 4.18 | 4.9 | 6.04 | 5.82 | < 4.18 | < 4.18 | 5.28
5.04 | 4.45 | 4.82 | 4.64 | 4.52 | 4.47 | 4.52 | 5.15 | 4.76 | 4.89 | 4.45 | 4.82 | 4.6 | Cc1ccc(NC(=O)c2ccc(CN3CCN(C)CC3)cc2)cc1Nc1nccc(-c2cccnc2)n1 [Imatinib] | 4.63 | 4.37 | 4.77 | 4.1 | 4.9 | 4.86 | 4.36
7.52 | 7.33 | 7.42 | 7.05 | 7.29 | 7.36 | 7.56 | 7.55 | 7.5 | 7.77 | 7.34 | 7.5 | 7.58 | Cc1ccc(C(=O)N(CCCN)[C@@H](c2nc3cc(Cl)ccc3c(=O)n2Cc2ccccc2)C(C)C)cc1 [Ispinesib] | 6.05 | 7.25 | 7.34 | 6.51 | 6.99 | 5.84 | 7.4
8.71 | 8.55 | 9.44 | 8.41 | 8.42 | 9 | 8.21 | 8.36 | 8.33 | 8.45 | 8.26 | 9.34 | 8.66 | C/C(=C\c1csc(C)n1)[C@@H]1C[C@@H]2O[C@]2(C)CCC[C@H](C)[C@H](O)[C@@H](C)C(=O)C(C)(C)[C@@H](O)CC(=O)N1 [Ixabepilone] | 6.76 | 8.13 | 8.85 | 8.62 | 5.96 | 6.67 | 8.1
6.43 | 7.45 | 7.1 | 7.66 | 7.46 | 7.05 | 6.53 | 6.82 | 7.29 | 6.41 | 6.91 | 6.68 | 6.76 | Cc1[nH]c2ccccc2c1CCNCc1ccc(/C=C/C(=O)NO)cc1 [LBH589] | 6.99 | 6.35 | 7.11 | 6.55 | 6.96 | 6.56 | 6.84
4.76 | 4.67 | 5.25 | 4.46 | 4.8 | 4.47 | 4.56 | 4.32 | 4.76 | 4.41 | 4.37 | < 4.18 | 4.78 | COc1ccc(C2=N[C@@H](c3ccc(Cl)cc3)[C@@H](c3ccc(Cl)cc3)N2C(=O)N2CCNC(=O)C2)c(OC(C)C)c1 [Nutlin 3a] | 5.3 | 5.82 | 4.73 | < 4.18 | 4.69 | 5.46 | 5.21
4.95 | 5.53 | 5.23 | 5.32 | 5.2 | 5.23 | 5.51 | 5.06 | 5.23 | 5.43 | 5.66 | 5.17 | 5.18 | CC[C@H](CO)Nc1nc(NCc2ccccc2O)c2ncn(C(C)C)c2n1 [Olomoucine II] | 5.53 | 5.22 | 5.47 | 5.18 | 5.28 | 5.5 | 5.51
5.81 | 6.77 | 5.74 | 6.22 | 6.57 | 6.18 | 5.82 | 6.16 | 6.13 | 5.42 | 5.96 | 5.58 | 6.19 | O=C(/C=C/C#Cc1cccc(NS(=O)(=O)c2ccccc2)c1)NO [Oxamflatin] | 6.06 | 5.76 | 6.36 | 5.86 | 6.06 | 5.86 | 6.14
< 2.53 | < 2.53 | < 2.53 | < 2.53 | < 2.53 | < 2.53 | < 2.53 | 6.05 | < 2.53 | < 2.53 | < 2.53 | < 2.53 | < 2.53 | Nc1nc2[nH]cc(CCc3ccc(C(=O)N[C@@H](CCC(=O)O)C(=O)O)cc3)c2c(=O)[nH]1 [Pemetrexed] | 6.44 | 6.72 | < 2.53 | 4.59 | < 2.53 | 6.38 | < 2.53
